Results taken from patent publication US10265342B2, “Sustained-release composition, method for fabricating, and use thereof” (NATIONAL TSING HUA UNIVERSITY, priority 2017, dated 2019).

How the values were obtained:
[1] = system: hindlimb ischemia (ligation of femoral artery); assay: mouse hindlimb ischemia model; assay type: in vivo, BALB/c mice; details: intramuscular injection into quadriceps muscle
Experimental: As mentioned above, the sustained-release composition can be applied for promoting angiogenesis in ischemic tissues. Thus, the effect of such the use will be further evaluated through a mouse hindlimb ischemia model and utilizes the sustained-release composition of the 1st embodiment of the present disclosure. In the present disclosure, all animal experimentation processes are performed according to an animal care and use guideline promulgated by Council of Agriculture, Executive Yuan, R.O.C. (Taiwan). In particular, BALB/c mice are served as a platform for developing the animal model. In the beginning, for each of the mice, 2 L/min of oxygen and 4% inhaled isoflurane are provided into an anesthesia box to introduce a general anesthesia in the mouse under room temperature, and the mouse is intubated and supplied by 3% isoflurane continuously. After a medial thigh area of the mouse is cut by a scalpel, the mouse is subjected by ligation of upper end and lower end of femoral artery to simulate hindlimb ischemia.
Subsequently, an intramuscular injection is performed into the quadriceps muscle adjacent to the proximal ligation site. The abovementioned mice can be divided into four groups according to the treatment. In details, the mice of Group 1 are only injected with physiological saline. […] The mice of Group 4 are injected with the sustained-release composition of the 1st embodiment. […]

[2] = cited from earlier work

Compound: C=CCSSSCC=C [free diallyl trisulfide, diallyl trisulfide]
- hindlimb kept or lost after fourteen days [1]: lose its hindlimb
- muscle atrophy of the hindlimb ([1]; fourteen days): slighter than that of the mice of Group 1 and Group 3
- half-life in aqueous solution [2]: around 15 minutes
